Measurements published in patent US11291667B2, “Combination therapy involving diaryl macrocyclic compounds” (TURNING POINT THERAPEUTICS, INC., priority 2017, dated 2022).
Like-named read-outs stand apart in the source and are kept apart here.

How the values were obtained:
FAK = FAK (Homo sapiens (Human), UniProt Q05397); assay: Enzymatic kinase inhibition assay 1 (Eurofins KinaseProfiler); assay type: biochemical; conditions: kinase activity remaining as % of DMSO control; 1 μM compound; ATP 10 μM
Protocol: (§1) The enzymatic kinase inhibition against FAK, SRC and JAK2 were evaluated at Eurofins using the Erofins KinaseProfiler™ panel. All compounds were prepared to a working stock of 50× final assay concentration in 100% DMSO. Where appropriate, more concentrated stocks were diluted manually to 50× using 100% DMSO. Compounds supplied as powders were reconstituted to a 10 mM stock in 100% DMSO before further dilution to 50×. The required volume of the 50× stock of test compound was added to the assay well, before a reaction mix containing the enzyme and substrate was added. The reaction was initiated by the addition of ATP at 10 μM concentration. There was no pre-incubation of the compound with the enzyme/substrate mix prior to ATP addition. Data are handled using a custom built in-house analysis software. Results are expressed as kinase activity remaining, as a percentage of the DMSO control. This is calculated using the following formula: […].

JAK2 = JAK2 (Homo sapiens (Human), UniProt O60674); assay: as above; assay type: biochemical; conditions: kinase activity remaining as % of DMSO control; 1 μM compound; ATP 10 μM
Protocol: as §1

SRC = SRC (Homo sapiens (Human), UniProt P12931); assay: as above; assay type: biochemical; conditions: kinase activity remaining as % of DMSO control; 1 μM compound; ATP 10 μM
Protocol: as §1

NCI-H1975 cells = assay: NCI-H1975 lung cancer cell proliferation assay (CellTiter-Glo); assay type: cell-based, Human; conditions: for IC50: Homo sapiens, NCI-H1975, 72 h; for inhibition of NCI-H1975 cell proliferation (in words): NCI-H1975 cells, 72 hours
Protocol: Cell proliferation was measured using CellTiter-Glo luciferase-based ATP detection assay (Promega) following the manufactures's protocol. IC50 determinations were performed using GraphPad Prism software (GraphPad, Inc., San Diego, Calif.).

phosphorylated EGFR = assay: Immunoblotting for cellular kinase phosphorylation; assay type: cell-based, Human
phosphorylated paxillin = assay: Immunoblotting for cellular kinase phosphorylation; assay type: cell-based, Human; conditions: NCI-H1975 cells, 4 hours; for inhibition of phosphorylation of paxillin: 1 μM concentration
Protocol: (§2) NSCLC NCI-H1975 cells (harboring EGFR L858R/T790M double mutations) were cultured in RPMI medium, supplemented with 10% fetal bovine serum and 100 U/mL of penicillin/streptomycin. […] Cells were collected after treatment and lysed in RIPA buffer (50 mM Tris, pH 7.4, 150 mM NaCl, 1% NP-40, 0.5% Deoxycholate, 0.1% SDS) supplemented with 10 mM EDTA, 1× Halt protease and phosphatase inhibitors (Thermo Scientific). […] Membranes were incubated with chemiluminescent substrate for 5 min at room temperature (SuperSignal West Femto, Thermo Scientific). The chemiluminescent images were acquired with a C-DiGit Imaging System (LI-COR Biosciences).

phosphorylated STAT3 = assay: Immunoblotting for cellular kinase phosphorylation; assay type: cell-based, Human; conditions: NCI-H1975 cells, 4 hours, 1 μM concentration
Protocol: as §2

phosphorylated AKT = assay: Immunoblotting for cellular kinase phosphorylation; assay type: cell-based, Human; conditions: NCI-H1975 cells, 4 hours, 1 μM concentration
Protocol: as §2

phosphorylated ERK = assay: Immunoblotting for cellular kinase phosphorylation; assay type: cell-based, Human; conditions: NCI-H1975 cells, 4 hours, 1 μM concentration
Protocol: as §2

[1] = read-out: anti-proliferation IC50
[2] = read-out: anti-proliferation IC50 of EGFR inhibitor with Compound 1 at 3 μM

Sequence of JAK2 (O60674 whole entry): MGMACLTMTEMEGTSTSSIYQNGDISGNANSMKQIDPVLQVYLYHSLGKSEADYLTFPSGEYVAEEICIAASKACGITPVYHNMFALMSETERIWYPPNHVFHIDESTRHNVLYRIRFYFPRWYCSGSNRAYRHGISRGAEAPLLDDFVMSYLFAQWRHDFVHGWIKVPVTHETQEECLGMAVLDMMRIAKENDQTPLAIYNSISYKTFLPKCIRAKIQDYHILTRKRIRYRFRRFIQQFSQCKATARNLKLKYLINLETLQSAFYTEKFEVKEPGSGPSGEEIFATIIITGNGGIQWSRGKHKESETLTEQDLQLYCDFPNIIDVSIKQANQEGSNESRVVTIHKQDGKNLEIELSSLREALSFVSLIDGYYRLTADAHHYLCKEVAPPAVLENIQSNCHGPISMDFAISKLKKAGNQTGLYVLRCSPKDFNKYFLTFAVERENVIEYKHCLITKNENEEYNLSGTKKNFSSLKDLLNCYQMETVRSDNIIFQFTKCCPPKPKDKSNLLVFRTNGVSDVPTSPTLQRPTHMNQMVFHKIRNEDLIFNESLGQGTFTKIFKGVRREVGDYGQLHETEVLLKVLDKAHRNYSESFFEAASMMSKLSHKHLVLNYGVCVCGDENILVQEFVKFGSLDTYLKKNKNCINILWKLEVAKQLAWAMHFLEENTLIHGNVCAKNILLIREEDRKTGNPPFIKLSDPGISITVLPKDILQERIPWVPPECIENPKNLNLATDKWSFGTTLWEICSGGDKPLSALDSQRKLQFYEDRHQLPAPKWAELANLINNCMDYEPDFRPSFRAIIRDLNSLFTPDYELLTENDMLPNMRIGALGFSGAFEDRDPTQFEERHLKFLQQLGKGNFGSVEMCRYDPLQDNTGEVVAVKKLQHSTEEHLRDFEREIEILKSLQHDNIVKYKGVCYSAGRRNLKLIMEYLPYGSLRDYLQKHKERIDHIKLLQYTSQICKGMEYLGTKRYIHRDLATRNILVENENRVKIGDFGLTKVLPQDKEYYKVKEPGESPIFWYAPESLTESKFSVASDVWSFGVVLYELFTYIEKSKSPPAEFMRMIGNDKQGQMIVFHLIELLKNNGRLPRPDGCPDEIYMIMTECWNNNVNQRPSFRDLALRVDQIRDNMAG
Sequence of SRC (P12931 whole entry, looked up): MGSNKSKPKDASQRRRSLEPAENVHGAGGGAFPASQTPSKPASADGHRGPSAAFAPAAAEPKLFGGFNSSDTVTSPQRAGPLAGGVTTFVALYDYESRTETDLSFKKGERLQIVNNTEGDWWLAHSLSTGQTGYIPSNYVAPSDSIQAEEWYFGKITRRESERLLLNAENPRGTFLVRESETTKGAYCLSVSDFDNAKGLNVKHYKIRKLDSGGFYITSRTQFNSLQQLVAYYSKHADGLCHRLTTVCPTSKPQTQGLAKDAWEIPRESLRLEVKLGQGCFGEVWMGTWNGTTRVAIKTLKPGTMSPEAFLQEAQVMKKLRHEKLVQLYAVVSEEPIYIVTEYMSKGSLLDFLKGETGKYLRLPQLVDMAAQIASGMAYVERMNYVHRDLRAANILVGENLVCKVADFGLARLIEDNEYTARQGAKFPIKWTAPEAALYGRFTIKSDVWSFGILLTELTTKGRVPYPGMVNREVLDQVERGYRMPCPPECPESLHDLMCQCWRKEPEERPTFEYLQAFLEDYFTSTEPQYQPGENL
Sequence of FAK (Q05397 whole entry): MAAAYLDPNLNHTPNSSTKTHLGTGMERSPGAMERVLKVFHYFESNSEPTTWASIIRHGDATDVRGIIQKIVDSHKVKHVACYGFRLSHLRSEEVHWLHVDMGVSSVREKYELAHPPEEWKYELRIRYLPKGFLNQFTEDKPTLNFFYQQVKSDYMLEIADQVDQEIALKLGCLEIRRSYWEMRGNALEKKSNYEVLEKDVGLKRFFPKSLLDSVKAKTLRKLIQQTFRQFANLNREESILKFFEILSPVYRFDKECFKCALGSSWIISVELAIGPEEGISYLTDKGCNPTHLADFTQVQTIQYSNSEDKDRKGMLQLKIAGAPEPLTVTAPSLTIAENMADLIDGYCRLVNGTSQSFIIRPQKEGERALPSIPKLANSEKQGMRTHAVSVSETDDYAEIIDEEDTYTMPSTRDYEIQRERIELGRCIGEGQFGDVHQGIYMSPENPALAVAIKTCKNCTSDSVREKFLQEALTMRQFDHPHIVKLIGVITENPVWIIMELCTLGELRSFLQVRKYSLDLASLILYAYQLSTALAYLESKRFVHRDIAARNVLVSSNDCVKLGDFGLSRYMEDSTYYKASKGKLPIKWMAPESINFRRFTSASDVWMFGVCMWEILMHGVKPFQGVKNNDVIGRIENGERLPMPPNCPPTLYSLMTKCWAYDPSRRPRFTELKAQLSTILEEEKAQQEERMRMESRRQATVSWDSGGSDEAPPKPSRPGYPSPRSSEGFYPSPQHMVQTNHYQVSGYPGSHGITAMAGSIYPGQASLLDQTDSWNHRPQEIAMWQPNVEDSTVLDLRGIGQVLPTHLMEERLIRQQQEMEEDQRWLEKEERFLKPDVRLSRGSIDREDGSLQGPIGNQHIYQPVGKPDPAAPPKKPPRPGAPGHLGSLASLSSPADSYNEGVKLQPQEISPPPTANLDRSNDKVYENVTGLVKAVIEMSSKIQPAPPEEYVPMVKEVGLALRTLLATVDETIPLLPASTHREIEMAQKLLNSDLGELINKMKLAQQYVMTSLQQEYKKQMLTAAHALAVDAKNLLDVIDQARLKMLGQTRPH

| % remaining FAK at 1 μM testing comp. (FAK) | % remaining JAK2 at 1 μM testing comp. (JAK2) | % remaining SRC at 1 μM testing comp. (SRC) | Compound | IC50 (NCI-H1975 cells; [1]) | inhibition of NCI-H1975 cell proliferation (in words) (NCI-H1975 cells) | inhibition of phosphorylation of EGFR (phosphorylated EGFR; NCI-H1975 cells, 4 hours, 1 μM concentration) | inhibition of EGFR phosphorylation (phosphorylated EGFR; NCI-H1975 cells, 4 hours, dose response (FIG. 11)) | inhibition of phosphorylation of paxillin (phosphorylated paxillin) | inhibition of phosphorylation of SRC/FAK substrate paxillin (phosphorylated paxillin; dose response (FIG. 11)) | inhibition of phosphorylation of STAT3 (phosphorylated STAT3) | inhibition of phosphorylation of AKT (phosphorylated AKT) | inhibition of phosphorylation of ERK (phosphorylated ERK) | IC50 (NCI-H1975 cells; [2]) | IC50 (NCI-H1975 cells; read-out: anti-proliferation IC50 (partial)) | inhibition of phosphorylation of EGFR (phosphorylated EGFR) |
| --- | --- | --- | --- | --- | --- | --- | --- | --- | --- | --- | --- | --- | --- | --- | --- |
| −1% | 3% | 2% | C[C@H]1Nc2ccn3ncc(c3n2)C(=O)NC[C@@H](O)COc2ccc(F)cc21 [Compound 2, (7R,14R)-12-fluoro-7-hydroxy-14-methyl-5,6,7,8,14,15-hexahydro-4H-1,16-ethenopyrazolo[4,3-g][1,5,9,11]benzoxatriazacyclotetradecin-4-one] |  |  |  |  |  |  |  |  |  |  |  |  |
| −2% | 6% | 8% | O=C1NCCCOc2ccc(F)cc2CCc2ccn3ncc1c3n2 [Compound 3, 12-fluoro-5,6,7,8,14,15-hexahydro-4H-1,16-ethenopyrazolo[4,3-g][1,5,9]benzoxadiazacyclotetradecin-4-one] |  |  |  |  |  |  |  |  |  |  |  |  |
|  |  |  | C#Cc1cccc(Nc2ncnc3cc(OCCOC)c(OCCOC)cc23)c1 [erlotinib] | 6240 nM | not sensitive |  |  | minimum inhibition |  | minimum inhibition | minimum inhibition | minimum inhibition | 1000 nM |  |  |
|  |  |  | C=CC(=O)Nc1cc(Nc2nccc(-c3cn(C)c4ccccc34)n2)c(OC)cc1N(C)CCN(C)C [osimertinib] |  | […] |  |  | minimum inhibition |  | minimum inhibition | significant inhibition | significant inhibition | […] | […] | significant inhibition |

| Compound | % remaining FAK at 1 μM testing comp. (FAK) | % remaining JAK2 at 1 μM testing comp. (JAK2) | % remaining SRC at 1 μM testing comp. (SRC) | IC50 (NCI-H1975 cells; [1]) | inhibition of NCI-H1975 cell proliferation (in words) (NCI-H1975 cells) | inhibition of phosphorylation of EGFR (phosphorylated EGFR; NCI-H1975 cells, 4 hours, 1 μM concentration) | inhibition of EGFR phosphorylation (phosphorylated EGFR; NCI-H1975 cells, 4 hours, dose response (FIG. 11)) | inhibition of phosphorylation of paxillin (phosphorylated paxillin) | inhibition of phosphorylation of SRC/FAK substrate paxillin (phosphorylated paxillin; dose response (FIG. 11)) | inhibition of phosphorylation of STAT3 (phosphorylated STAT3) | inhibition of phosphorylation of AKT (phosphorylated AKT) | inhibition of phosphorylation of ERK (phosphorylated ERK) | IC50 (NCI-H1975 cells; [2]) | IC50 (NCI-H1975 cells; read-out: anti-proliferation IC50 (partial)) | inhibition of phosphorylation of EGFR (phosphorylated EGFR) |
| --- | --- | --- | --- | --- | --- | --- | --- | --- | --- | --- | --- | --- | --- | --- | --- |
| C[C@H]1CNC(=O)c2cnn3ccc(nc23)N[C@H](C)c2cc(F)ccc2O1 [Compound 1, (7S,13R)-11-fluoro-7,13-dimethyl-6,7,13,14-tetrahydro-1,15-ethenopyrazolo[4,3-f][1,4,8,10]benzoxatriazacyclotridecin-4(5H)-one] | −1% | 0% | 1% | 4000 nM | only partial inhibition activity | minimum inhibition | no inhibition | significant inhibition | dose-dependently inhibited | significant inhibition | minimum inhibition | minimum inhibition |  |  |  |
